#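 Tested at 5 concentrations; 48 h exposure; 96-well plates; endpoints linearly interpolated, else capped at highest concentration. GI50 marks 50% less growth. TGI: concentration producing complete growth inhibition.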
# Tests used:
# Test in all cases: growth of human tumour cells (NCI), 48 h
# [1] = test system: HCT-15 colon
# [2] = test system: A498 renal
# [3] = test system: OVCAR-8 ovarian
# [4] = test system: SF-268 CNS
# [5] = test system: SW-620 colon
# [6] = test system: KM12 colon
# [7] = test system: HT29 colon
# [8] = test system: OVCAR-4 ovarian
# [9] = test system: HOP-92 NSCLC
# [10] = test system: HS 578T breast
# [11] = test system: OVCAR-5 ovarian
# [12] = test system: SK-MEL-5 melanoma
# [13] = test system: HCC-2998 colon
# [14] = test system: BT-549 breast
# [15] = test system: CCRF-CEM leukemia
# [16] = test system: A549 NSCLC
# [17] = test system: SNB-75 CNS
# [18] = test system: OVCAR-3 ovarian
# [19] = test system: NCI-H460 lung
# [20] = test system: SR leukemia
# [21] = test system: NCI-H226 lung
# [22] = test system: RXF 393 renal
# [23] = test system: SNB-19 CNS
# [24] = test system: LOX IMVI melanoma
# [25] = test system: MCF7 breast
# [26] = test system: T-47D breast
# [27] = test system: PC-3 prostate
# [28] = test system: MALME-3M melanoma
# [29] = test system: UACC-257 melanoma
# [30] = test system: SK-MEL-2 melanoma
# [31] = test system: MDA-MB-435
# [32] = test system: RPMI-8226 leukemia
# [33] = test system: COLO 205 colon
# [34] = test system: ACHN renal
# [35] = test system: M14 melanoma
# [36] = test system: TK-10 renal
# [37] = test system: SK-MEL-28 melanoma
# [38] = test system: NCI/ADR-RES ovarian
# [39] = test system: SN12C renal
# [40] = test system: U251 CNS
# [41] = test system: EKVX NSCLC
# [42] = test system: UACC-62 melanoma
# [43] = test system: SK-OV-3 ovarian
# [44] = test system: HL-60(TB) leukemia
# [45] = test system: SF-295 CNS
# [46] = test system: UO-31 renal
# [47] = test system: K-562 leukemia
# [48] = test system: MDA-MB-231 breast
# [49] = test system: CAKI-1 renal
# [50] = test system: SF-539 CNS
# [51] = test system: IGROV1 ovarian
# [52] = test system: 786-0 renal
# [53] = test system: MOLT-4 leukemia
# [54] = test system: HCT-116 colon
# [55] = test system: DU-145 prostate
# [56] = test system: HOP-62 NSCLC
# [57] = test system: NCI-H522 lung
# [58] = test system: NCI-H23 lung
structure (smiles),measurement,setting,value
O=C1OC(C(O)C(O)C(O)CO)C(O)C1O (configuration not stated),TGI,[1],> 100 µM
same,TGI,[2],> 100 µM
same,TGI,[3],> 100 µM
same,TGI,[4],> 100 µM
same,TGI,[5],> 100 µM
same,TGI,[6],> 100 µM
same,TGI,[7],> 100 µM
same,TGI,[8],> 100 µM
same,TGI,[9],> 100 µM
same,TGI,[10],> 100 µM
same,TGI,[11],> 100 µM
same,TGI,[12],> 100 µM
same,TGI,[13],> 100 µM
same,TGI,[14],> 100 µM
same,TGI,[15],> 100 µM
same,TGI,[16],> 100 µM
same,TGI,[17],> 100 µM
same,TGI,[18],> 100 µM
same,TGI,[19],> 100 µM
same,TGI,[20],> 100 µM
same,TGI,[21],> 100 µM
same,TGI,[22],> 100 µM
same,TGI,[23],> 100 µM
same,TGI,[24],> 100 µM
same,TGI,[25],> 100 µM
same,TGI,[26],> 100 µM
same,TGI,[27],> 100 µM
same,TGI,[28],> 100 µM
same,TGI,[29],> 100 µM
same,TGI,[30],> 100 µM
same,TGI,[31],> 100 µM
same,TGI,[32],> 100 µM
same,TGI,[33],> 100 µM
same,TGI,[34],> 100 µM
same,TGI,[35],> 100 µM
same,TGI,[36],> 100 µM
same,TGI,[37],> 100 µM
same,TGI,[38],> 100 µM
same,TGI,[39],> 100 µM
same,TGI,[40],> 100 µM
same,TGI,[41],> 100 µM
same,TGI,[42],> 100 µM
same,TGI,[43],> 100 µM
same,TGI,[44],> 100 µM
same,TGI,[45],> 100 µM
same,TGI,[46],> 100 µM
same,TGI,[47],> 100 µM
same,TGI,[48],> 100 µM
same,TGI,[49],> 100 µM
same,TGI,[50],> 100 µM
same,TGI,[51],> 100 µM
same,TGI,[52],> 100 µM
same,TGI,[53],> 100 µM
same,TGI,[54],> 100 µM
same,TGI,[55],> 100 µM
same,TGI,[56],> 100 µM
same,TGI,[57],> 100 µM
same,TGI,[58],> 100 µM
C#CC#CC#CC#CC#CC#CC#CC#CCC1OC[C@H](COC(=O)O[C@@H](C(=O)O[C@H]2C[C@@]3(O)[C@@H](OC(=O)c4ccccc4)[C@@H]4[C@]5(OC(C)=O)CO[C@@H]5C[C@H](O)[C@@]4(C)C(=O)[C@H](OC(C)=O)C(=C2C)C3(C)C)[C@@H](NC(=O)c2ccccc2)c2ccccc2)O1 (some centres not stated),GI50,[1],11.7 µM
same,TGI,[1],> 33.3 µM
same,GI50,[2],0.494 µM
same,TGI,[2],> 8.14 µM
same,GI50,[3],0.561 µM
same,TGI,[3],> 33.3 µM
same,GI50,[4],0.992 µM
same,TGI,[4],> 33.3 µM
same,GI50,[5],0.261 µM
same,TGI,[5],> 33.3 µM
same,GI50,[6],0.196 µM
same,TGI,[6],> 33.3 µM
same,GI50,[7],0.114 µM
same,TGI,[7],> 33.3 µM
same,GI50,[8],> 33.3 µM
same,TGI,[8],> 33.3 µM
same,GI50,[9],> 18.5 µM
same,TGI,[9],> 33.3 µM
same,GI50,[10],0.297 µM
same,TGI,[10],> 17.3 µM
same,GI50,[11],0.554 µM
same,TGI,[11],> 33.3 µM
same,GI50,[12],1.47 µM
same,TGI,[12],> 33.3 µM
same,GI50,[13],0.52 µM
same,TGI,[13],> 33.3 µM
same,GI50,[14],1.01 µM
same,TGI,[14],> 33.3 µM
same,GI50,[15],0.632 µM
same,TGI,[15],> 33.3 µM
same,GI50,[16],0.295 µM
same,TGI,[16],> 33.3 µM
same,GI50,[17],0.0727 µM
same,TGI,[17],0.648 µM
same,GI50,[18],0.17 µM
same,TGI,[18],> 33.3 µM
same,GI50,[19],0.123 µM
same,TGI,[19],> 33.3 µM
same,GI50,[20],0.182 µM
same,TGI,[20],> 33.3 µM
same,GI50,[21],> 33.3 µM
same,TGI,[21],> 33.3 µM
same,GI50,[22],1.25 µM
same,TGI,[22],> 15.3 µM
same,GI50,[23],1.14 µM
same,TGI,[23],> 33.3 µM
same,GI50,[24],0.199 µM
same,TGI,[24],> 33.3 µM
same,GI50,[25],0.0921 µM
same,TGI,[25],> 33.3 µM
same,GI50,[26],0.516 µM
same,TGI,[26],> 33.3 µM
same,GI50,[27],0.569 µM
same,TGI,[27],> 33.3 µM
same,GI50,[28],1.16 µM
same,TGI,[28],> 33.3 µM
same,GI50,[29],> 8.84 µM
same,TGI,[29],> 33.3 µM
same,GI50,[30],1.56 µM
same,TGI,[30],> 33.3 µM
same,GI50,[31],0.044 µM
same,TGI,[31],0.109 µM
same,GI50,[32],0.114 µM
same,TGI,[32],> 33.3 µM
same,GI50,[33],0.202 µM
same,TGI,[33],> 33.3 µM
same,GI50,[34],> 33.3 µM
same,TGI,[34],> 33.3 µM
same,GI50,[35],0.386 µM
same,TGI,[35],3.59 µM
same,GI50,[36],> 21.5 µM
same,TGI,[36],> 33.3 µM
same,GI50,[38],> 33.3 µM
same,TGI,[38],> 33.3 µM
same,GI50,[39],1.34 µM
same,TGI,[39],> 33.3 µM
same,GI50,[40],0.394 µM
same,TGI,[40],> 33.3 µM
same,GI50,[41],> 33.3 µM
same,TGI,[41],> 33.3 µM
same,GI50,[42],0.907 µM
same,TGI,[42],> 33.3 µM
same,GI50,[43],1.38 µM
same,TGI,[43],> 33.3 µM
same,GI50,[44],0.172 µM
same,TGI,[44],> 10.9 µM
same,GI50,[45],1.01 µM
same,TGI,[45],> 27.5 µM
same,GI50,[46],> 33.3 µM
same,TGI,[46],> 33.3 µM
same,GI50,[47],0.255 µM
same,TGI,[47],> 33.3 µM
same,GI50,[48],1.27 µM
same,TGI,[48],> 33.3 µM
same,GI50,[49],1.4 µM
same,TGI,[49],> 33.3 µM
same,GI50,[50],0.298 µM
same,TGI,[50],4.68 µM
same,GI50,[51],0.424 µM
same,TGI,[51],> 33.3 µM
same,GI50,[52],8.21 µM
same,TGI,[52],> 33.3 µM
same,GI50,[53],0.443 µM
same,TGI,[53],> 33.3 µM
same,GI50,[54],0.145 µM
same,TGI,[54],> 33.3 µM
same,GI50,[55],0.228 µM
same,TGI,[55],> 33.3 µM
same,GI50,[56],1.37 µM
same,TGI,[56],> 33.3 µM
same,GI50,[57],0.648 µM
same,TGI,[57],> 33.3 µM
same,GI50,[58],0.888 µM
same,TGI,[58],> 33.3 µM

# — PubChem BioAssay (NCI)
